Results: ChEMBL document CHEMBL3045422, “Synthesis, characterization, and antimicrobial screening of some Mannich base sydnone derivatives” (2013)
In brackets after ≈: the same amount, converted by molar mass.

How the values were obtained:
Pseudomonas aeruginosa [1] = assay: microbe, parasite or virus in culture; format: functional
Description: Antibacterial activity against Pseudomonas aeruginosa

Escherichia coli [2] = assay: microbe, parasite or virus in culture; format: functional; conditions: read-out: IZ
Description: Antibacterial activity against Escherichia coli at 300 ug/ml

Pseudomonas aeruginosa [3] = assay: microbe, parasite or virus in culture; format: functional; conditions: read-out: IZ
Description: Antibacterial activity against Pseudomonas aeruginosa at 300 ug/ml

Bacillus subtilis [4] = assay: microbe, parasite or virus in culture; format: functional; conditions: read-out: IZ
Description: Antibacterial activity against Bacillus subtilis at 300 ug/ml

Escherichia coli [5] = assay: microbe, parasite or virus in culture; format: functional
Description: Antibacterial activity against Escherichia coli

Staphylococcus aureus [6] = assay: microbe, parasite or virus in culture; format: functional; conditions: read-out: IZ
Description: Antibacterial activity against Staphylococcus aureus at 300 ug/ml

Staphylococcus aureus [7] = assay: microbe, parasite or virus in culture; format: functional
Description: Antibacterial activity against Staphylococcus aureus

Candida albicans [8] = assay: microbe, parasite or virus in culture; format: functional
Candida albicans [9] = assay: Antifungal activity against Candida albicans at 300 ug/ml; format: functional; conditions: read-out: IZ
Bacillus subtilis [10] = assay: microbe, parasite or virus in culture; format: functional
Description: Antibacterial activity against Bacillus subtilis

Candida albicans [11] = test system: Candida albicans
Candida albicans [12] = test system: Candida albicans; remark: listed apart in the source

Compound	MIC (Pseudomonas aeruginosa [1]) [µg/mL]	zone of inhibition at 300 µg/mL (Escherichia coli [2]) [mm]	zone of inhibition at 300 µg/mL (Pseudomonas aeruginosa [3]) [mm]	zone of inhibition at 300 µg/mL (Bacillus subtilis [4]) [mm]	MIC (Escherichia coli [5]) [µg/mL]	zone of inhibition at 300 µg/mL (Staphylococcus aureus [6]) [mm]	MIC (Staphylococcus aureus [7]) [µg/mL]	MIC (Candida albicans [8]) [µg/mL]	zone of inhibition at 300 µg/mL (Candida albicans [9]) [mm]	MIC (Bacillus subtilis [10]) [µg/mL]	MIC (Candida albicans [11]) [µg/mL]	IZ (Candida albicans [12]) [mm]
COc1ccc(-[n+]2noc([O-])c2CNc2cc(Cl)ccc2Cl)cc1	500 (≈ 1370 µM)	10	10	12	500 (≈ 1370 µM)	11	300 (≈ 819 µM)	300 (≈ 819 µM)	13	300 (≈ 819 µM)		
NYSTATIN											100	28
CCOc1ccc2nc(NCc3c([O-])on[n+]3-c3ccc(OC)cc3)sc2c1	200 (≈ 502 µM)	13	13	13	300 (≈ 753 µM)	14	200 (≈ 502 µM)	200 (≈ 502 µM)	14	200 (≈ 502 µM)		
COc1ccc(-[n+]2noc([O-])c2CNc2nc3ccc(Br)cc3s2)cc1	200 (≈ 462 µM)	11	12	15	300 (≈ 692 µM)	18	100 (≈ 231 µM)	80 (≈ 185 µM)	21	100 (≈ 231 µM)		
COc1ccc(-[n+]2noc([O-])c2Cn2c(-c3ccccc3Br)nc3ccccc32)cc1	200 (≈ 419 µM)	14	13	12	200 (≈ 419 µM)	10	500 (≈ 1050 µM)	200 (≈ 419 µM)	13	300 (≈ 629 µM)		
CCOc1ccc(NCc2c([O-])on[n+]2-c2ccc(OC)cc2)cc1	100 (≈ 293 µM)	13	15	16	200 (≈ 586 µM)	17	40 (≈ 117 µM)	200 (≈ 586 µM)	16	80 (≈ 234 µM)		
COc1ccc(-[n+]2noc([O-])c2Cn2c(-c3ccccc3[N+](=O)[O-])nc3ccccc32)cc1	500 (≈ 1130 µM)	14	10	12	200 (≈ 451 µM)	21	40 (≈ 90.2 µM)	200 (≈ 451 µM)	14	300 (≈ 677 µM)		
COc1ccc(-[n+]2noc([O-])c2Cn2c(-c3cccc(Br)c3)nc3ccccc32)cc1	500 (≈ 1050 µM)	12	10	10	300 (≈ 629 µM)	10	500 (≈ 1050 µM)	200 (≈ 419 µM)	14	500 (≈ 1050 µM)		
COc1ccc(-[n+]2noc([O-])c2CNc2nc3ccc(C)cc3s2)cc1	500 (≈ 1360 µM)	12	10	18	300 (≈ 814 µM)	15	200 (≈ 543 µM)	100 (≈ 271 µM)	17	60 (≈ 163 µM)		
COc1ccc(-[n+]2noc([O-])c2CNc2ccc(C)cc2)cc1	200 (≈ 642 µM)	13	13	14	200 (≈ 642 µM)	13	200 (≈ 642 µM)	200 (≈ 642 µM)	16	200 (≈ 642 µM)		
COc1ccc(-[n+]2noc([O-])c2CNc2nc3ccc(C#N)cc3s2)cc1	500 (≈ 1320 µM)	12	10	17	300 (≈ 791 µM)	16	80 (≈ 211 µM)	100 (≈ 264 µM)	17	60 (≈ 158 µM)		
COc1ccc(-[n+]2noc([O-])c2CNc2ccc(Br)cc2)cc1	200 (≈ 532 µM)	12	13	13	300 (≈ 797 µM)	10	300 (≈ 797 µM)	200 (≈ 532 µM)	15	200 (≈ 532 µM)		
COc1ccc(-[n+]2noc([O-])c2Cn2c(-c3ccc(Cl)c(Cl)c3)nc3ccccc32)cc1	300 (≈ 642 µM)	13	14	12	300 (≈ 642 µM)	11	300 (≈ 642 µM)	200 (≈ 428 µM)	15	200 (≈ 428 µM)		
COc1ccc(-[n+]2noc([O-])c2CNc2nc3ccc(Cl)cc3s2)cc1	200 (≈ 514 µM)	13	13	15	200 (≈ 514 µM)	14	200 (≈ 514 µM)	100 (≈ 257 µM)	16	200 (≈ 514 µM)		
COc1ccc(-[n+]2noc([O-])c2Cn2cnc3ccccc32)cc1	500 (≈ 1550 µM)	10	10	11	500 (≈ 1550 µM)	11	300 (≈ 931 µM)	300 (≈ 931 µM)	12	300 (≈ 931 µM)		
COc1ccc(-[n+]2noc([O-])c2CNc2ccccc2Cl)cc1	500 (≈ 1510 µM)	12	10	12	300 (≈ 904 µM)	12	300 (≈ 904 µM)	300 (≈ 904 µM)	12	300 (≈ 904 µM)		
COc1ccc(-[n+]2noc([O-])c2CNc2ccc([N+](=O)[O-])cc2)cc1	200 (≈ 584 µM)	14	14	12	200 (≈ 584 µM)	10	500 (≈ 1460 µM)	200 (≈ 584 µM)	14	200 (≈ 584 µM)		
COc1ccc(-[n+]2noc([O-])c2CNc2nc3ccc([N+](=O)[O-])cc3s2)cc1	200 (≈ 501 µM)	12	16	18	300 (≈ 751 µM)	16	80 (≈ 200 µM)	100 (≈ 250 µM)	17	40 (≈ 100 µM)		
COc1ccc(-[n+]2noc([O-])c2CNc2nc3ccc(OC)cc3s2)cc1	200 (≈ 520 µM)	13	14	12	200 (≈ 520 µM)	14	100 (≈ 260 µM)	100 (≈ 260 µM)	15	200 (≈ 520 µM)		
COc1ccc(-[n+]2noc([O-])c2CNc2nc3ccc(F)cc3s2)cc1	500 (≈ 1340 µM)	12	10	12	300 (≈ 806 µM)	12	300 (≈ 806 µM)	200 (≈ 537 µM)	13	200 (≈ 537 µM)		
COc1ccc(-[n+]2noc([O-])c2CNc2nc3c([N+](=O)[O-])cccc3s2)cc1	100 (≈ 250 µM)	23	18	30	40 (≈ 100 µM)	27	20 (≈ 50.1 µM)	20 (≈ 50.1 µM)	32	20 (≈ 50.1 µM)		
COc1ccc(-[n+]2noc([O-])c2Cn2c(-c3ccc(Cl)cc3)nc3ccccc32)cc1	500 (≈ 1160 µM)	15	10	12	200 (≈ 462 µM)	12	300 (≈ 693 µM)	200 (≈ 462 µM)	14	300 (≈ 693 µM)		
COc1ccc(-[n+]2noc([O-])c2CNc2nc3cc([N+](=O)[O-])ccc3s2)cc1	500 (≈ 1250 µM)	12	10	10	300 (≈ 751 µM)	10	500 (≈ 1250 µM)	200 (≈ 501 µM)	14	500 (≈ 1250 µM)		
COc1ccc(-[n+]2noc([O-])c2Cn2c(-c3ccc([N+](=O)[O-])cc3)nc3ccccc32)cc1	300 (≈ 677 µM)	18	12	12	60 (≈ 135 µM)	10	500 (≈ 1130 µM)	200 (≈ 451 µM)	12	300 (≈ 677 µM)		
COc1ccc(-c2nc3ccccc3n2Cc2c([O-])on[n+]2-c2ccc(OC)cc2)cc1	300 (≈ 700 µM)	15	12	12	300 (≈ 700 µM)	11	300 (≈ 700 µM)	200 (≈ 467 µM)	14	200 (≈ 467 µM)		
